The results in this text go back to patent US20120121591A1 (priority 2009, published 2012).

What all share (format): cell-based
The subject of test [1] is IL-2 secretion from T cells in human whole blood. To be noted: read-out: WB (IL-2) IC50 (nM, Avg).
A further test has as its target hKv1.3 (Homo sapiens, UniProt P22001). The test is described as follows: cell-based. To be noted: Kv1.3 (IWQ) IC50 (nM, Avg).
Test [2] deals with IFN-g secretion from T cells in human whole blood. To be noted: read-out: WB (IFNg) IC50 (nM, Avg).

Usually IC50 stands for the concentration that gives 50% inhibition.

Chain of hKv1.3 (P22001 whole entry): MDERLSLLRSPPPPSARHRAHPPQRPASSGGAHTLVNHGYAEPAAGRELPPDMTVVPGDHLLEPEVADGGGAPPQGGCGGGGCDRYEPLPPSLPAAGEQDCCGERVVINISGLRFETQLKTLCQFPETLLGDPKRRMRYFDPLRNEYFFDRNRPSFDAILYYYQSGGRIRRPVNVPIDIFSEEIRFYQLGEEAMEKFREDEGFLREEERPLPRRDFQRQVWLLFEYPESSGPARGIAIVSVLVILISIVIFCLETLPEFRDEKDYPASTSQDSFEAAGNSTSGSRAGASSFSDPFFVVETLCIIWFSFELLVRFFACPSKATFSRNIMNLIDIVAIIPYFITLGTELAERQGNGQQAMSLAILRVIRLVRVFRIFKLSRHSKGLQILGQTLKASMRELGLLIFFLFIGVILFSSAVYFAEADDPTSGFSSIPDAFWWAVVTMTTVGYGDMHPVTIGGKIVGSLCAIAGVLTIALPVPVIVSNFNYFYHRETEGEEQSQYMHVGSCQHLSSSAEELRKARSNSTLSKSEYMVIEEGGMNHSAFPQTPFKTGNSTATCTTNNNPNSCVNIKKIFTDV

On to `CCC[C@@H]1NC(=O)[C@H](CO)NC(=O)[C@H](Cc2c[nH]cn2)NC(=O)[C@H](CCCCN)NC(=O)[C@@H]2CSSC[C@@H]3NC(=O)[C@H]([C@@H](C)O)NC(=O)[C@H](CCCCN)NC(=O)[C@H](CCCNC(=N)N)NC(=O)[C@H](CSSC[C@H](NC(=O)[C@H](CCCNC(=N)N)NC(=O)[C@H](CO)NC(=O)[C@H](CCCCN)NC(=O)[C@@H]4CCCN4C(=O)[C@H]([C@@H](C)CC)NC(=O)[C@H]([C@@H](C)O)NC(=O)[C@H](CC(=O)O)NC(=O)[C@H]([C@@H](C)CC)NC(=O)[C@@H](NC(=O)[C@H](CO)NC(=O)[C@@H](N)CCCNC(=N)N)CSSC[C@@H](C(=O)N[C@@H](CO)C(N)=O)NC(=O)[C@H]([C@@H](C)O)NC(=O)CNC3=O)C(=O)N[C@@H]([C@@H](C)O)C(=O)N[C@@H](C)C(=O)N[C@@H](Cc3ccccc3)C(=O)N[C@@H](CCCCN)C(=O)N2)NC(=O)[C@H](Cc2ccccc2)NC(=O)[C@H](CO)NC(=O)[C@H](CC(C)C)NC(=O)[C@H](CCCNC(=N)N)NC(=O)[C@H](Cc2ccc(O)cc2)NC(=O)[C@H](CCCCN)NC1=O` [[Lys16,Nva21]ShK-Ser-amide], for which the values for the IC50 (in test [1]; on hKv1.3; in test [2]) were 0.467 nM, 0.09 nM and 0.662 nM, respectively.

Turning to `CCC[C@@H]1NC(=O)[C@H](CO)NC(=O)[C@H](Cc2c[nH]cn2)NC(=O)[C@H](CCCCN)NC(=O)[C@@H]2CSSC[C@@H]3NC(=O)[C@H]([C@@H](C)O)NC(=O)[C@H](CCCCN)NC(=O)[C@H](CCCNC(=N)N)NC(=O)[C@H](CSSC[C@H](NC(=O)[C@H](CCCNC(=N)N)NC(=O)[C@H](CO)NC(=O)[C@H](CCCCN)NC(=O)[C@@H]4CCCN4C(=O)[C@H]([C@@H](C)CC)NC(=O)[C@H]([C@@H](C)O)NC(=O)[C@H](CC(=O)O)NC(=O)[C@H]([C@@H](C)CC)NC(=O)[C@@H](NC(=O)[C@H](CO)NC(=O)[C@@H](N)CCCNC(=N)N)CSSC[C@@H](C(=O)N[C@H](C(N)=O)[C@@H](C)O)NC(=O)[C@H]([C@@H](C)O)NC(=O)CNC3=O)C(=O)N[C@@H]([C@@H](C)O)C(=O)N[C@@H](C)C(=O)N[C@@H](Cc3ccccc3)C(=O)N[C@@H](CCCCN)C(=O)N2)NC(=O)[C@H](Cc2ccccc2)NC(=O)[C@H](CO)NC(=O)[C@H](CC(C)C)NC(=O)[C@H](CCCNC(=N)N)NC(=O)[C@H](Cc2ccc(O)cc2)NC(=O)[C@H](CCCCN)NC1=O` [[Lys16,Nva21]ShK-Thr-amide], the figures for the IC50 (in test [1]; on hKv1.3; in test [2]) were 0.385 nM, 0.03 nM and 0.702 nM, respectively.

For the compound `CCC[C@@H]1NC(=O)[C@H](CO)NC(=O)[C@H](Cc2c[nH]cn2)NC(=O)[C@H](CCCCN)NC(=O)[C@@H]2CSSC[C@@H]3NC(=O)[C@H]([C@@H](C)O)NC(=O)[C@H](CCCCN)NC(=O)[C@H](CCCNC(=N)N)NC(=O)[C@H](CSSC[C@H](NC(=O)[C@H](CCCNC(=N)N)NC(=O)[C@H](CO)NC(=O)[C@H](CCCCN)NC(=O)[C@@H]4CCCN4C(=O)[C@H]([C@@H](C)CC)NC(=O)[C@H]([C@@H](C)O)NC(=O)[C@H](CC(=O)O)NC(=O)[C@H]([C@@H](C)CC)NC(=O)[C@@H](NC(=O)[C@H](CO)NC(=O)[C@@H](N)CCCNC(=N)N)CSSC[C@@H](C(=O)NCCC(=O)O)NC(=O)[C@H]([C@@H](C)O)NC(=O)CNC3=O)C(=O)N[C@@H]([C@@H](C)O)C(=O)N[C@@H](C)C(=O)N[C@@H](Cc3ccccc3)C(=O)N[C@@H](CCCCN)C(=O)N2)NC(=O)[C@H](Cc2ccccc2)NC(=O)[C@H](CO)NC(=O)[C@H](CC(C)C)NC(=O)[C@H](CCCNC(=N)N)NC(=O)[C@H](Cc2ccc(O)cc2)NC(=O)[C@H](CCCCN)NC1=O` [[Lys16,Nva21]ShK-betaAla], the IC50 in test [1] came out at 0.304 nM; against hKv1.3, 12.6 nM; in test [2] it was 0.231 nM.

Take `CC[C@H](C)[C@@H]1NC(=O)[C@@H](NC(=O)[C@H](CO)NC(=O)[C@@H](N)CCCNC(=N)N)CSSC[C@@H](C(=O)O)NC(=O)[C@H]([C@@H](C)O)NC(=O)CNC(=O)[C@@H]2CSSC[C@@H]3NC(=O)[C@H](CCC(N)=O)NC(=O)[C@H](Cc4ccccc4)NC(=O)[C@H](C)NC(=O)[C@H]([C@@H](C)O)NC(=O)[C@H](CSSC[C@H](NC(=O)[C@H](Cc4ccccc4)NC(=O)[C@H](CO)NC(=O)[C@H](CC(C)C)NC(=O)[C@H](CCCNC(=N)N)NC(=O)[C@H](Cc4ccc(O)cc4)NC(=O)[C@H](CCCCN)NC(=O)[C@H](CCSC)NC(=O)[C@H](CO)NC(=O)[C@H](CCCCN)NC(=O)[C@H](CCCCN)NC3=O)C(=O)N[C@@H](CCCNC(=N)N)C(=O)N[C@@H](CCCCN)C(=O)N[C@@H]([C@@H](C)O)C(=O)N2)NC(=O)[C@H](CCCNC(=N)N)NC(=O)[C@H](CO)NC(=O)[C@H](CCCCN)NC(=O)[C@@H]2CCCN2C(=O)[C@H]([C@@H](C)CC)NC(=O)[C@H]([C@@H](C)O)NC(=O)[C@H](CC(=O)O)NC1=O` [[Lys19]ShK]: the figures for the IC50 (in test [1]; at hKv1.3; in test [2]) were 0.041 nM, 0.189 nM and 0.089 nM, respectively.

Regarding `CC[C@H](C)[C@@H]1NC(=O)[C@@H](NC(=O)[C@H](CO)NC(=O)[C@@H](N)CCCNC(=N)N)CSSC[C@@H](C(=O)O)NC(=O)[C@H]([C@@H](C)O)NC(=O)CNC(=O)[C@@H]2CSSC[C@@H]3NC(=O)[C@H](CCC(N)=O)NC(=O)[C@H](Cc4ccccc4)NC(=O)[C@H](C)NC(=O)[C@H]([C@@H](C)O)NC(=O)[C@H](CSSC[C@H](NC(=O)[C@H](Cc4ccccc4)NC(=O)[C@H](CO)NC(=O)[C@H](CC(C)C)NC(=O)[C@H](CCCNC(=N)N)NC(=O)[C@H](Cc4ccc(O)cc4)NC(=O)[C@H](CCCCN)NC(=O)[C@H](CCSC)NC(=O)[C@H](CCCCN)NC(=O)[C@H](Cc4c[nH]cn4)NC(=O)[C@H](CCCCN)NC3=O)C(=O)N[C@@H](CCCNC(=N)N)C(=O)N[C@@H](CCCCN)C(=O)N[C@@H]([C@@H](C)O)C(=O)N2)NC(=O)[C@H](CCCNC(=N)N)NC(=O)[C@H](CO)NC(=O)[C@H](CCCCN)NC(=O)[C@@H]2CCCN2C(=O)[C@H]([C@@H](C)CC)NC(=O)[C@H]([C@@H](C)O)NC(=O)[C@H](CC(=O)O)NC1=O` [[Lys20]ShK], the half-inhibitory concentration (IC50) in test [1] was determined as 0.108 nM; against hKv1.3, 1.33 nM; in test [2], 0.192 nM.

Take `CC[C@H](C)[C@@H]1NC(=O)[C@@H](NC(=O)[C@H](CO)NC(=O)[C@@H](N)CCCNC(=N)N)CSSC[C@@H](C(=O)O)NC(=O)[C@H]([C@@H](C)O)NC(=O)CNC(=O)[C@@H]2CSSC[C@@H]3NC(=O)[C@H](CCC(N)=O)NC(=O)[C@H](Cc4ccccc4)NC(=O)[C@H](C)NC(=O)[C@H]([C@@H](C)O)NC(=O)[C@H](CSSC[C@H](NC(=O)[C@H](Cc4ccccc4)NC(=O)[C@H](CO)NC(=O)[C@H](CC(C)C)NC(=O)[C@H](CCCNC(=N)N)NC(=O)[C@H](Cc4ccc(O)cc4)NC(=O)[C@H](CCCCN)NC(=O)[C@H](CCCCN)NC(=O)[C@H](CO)NC(=O)[C@H](Cc4c[nH]cn4)NC(=O)[C@H](CCCCN)NC3=O)C(=O)N[C@@H](CCCNC(=N)N)C(=O)N[C@@H](CCCCN)C(=O)N[C@@H]([C@@H](C)O)C(=O)N2)NC(=O)[C@H](CCCNC(=N)N)NC(=O)[C@H](CO)NC(=O)[C@H](CCCCN)NC(=O)[C@@H]2CCCN2C(=O)[C@H]([C@@H](C)CC)NC(=O)[C@H]([C@@H](C)O)NC(=O)[C@H](CC(=O)O)NC1=O` [[Lys21]ShK]: the values for the IC50 (in test [1]; at hKv1.3; in test [2]) were 3.59 nM, 0.822 nM and 4.82 nM, respectively.

Turning to `CC[C@H](C)[C@@H]1NC(=O)[C@@H](NC(=O)[C@H](CO)NC(=O)[C@@H](N)CCCNC(=N)N)CSSC[C@@H](C(=O)O)NC(=O)[C@H]([C@@H](C)O)NC(=O)CNC(=O)[C@@H]2CSSC[C@@H]3NC(=O)[C@H](CCC(N)=O)NC(=O)[C@H](Cc4ccccc4)NC(=O)[C@H](C)NC(=O)[C@H]([C@@H](C)O)NC(=O)[C@H](CSSC[C@H](NC(=O)[C@H](Cc4ccccc4)NC(=O)[C@H](CO)NC(=O)[C@H](CCCCN)NC(=O)[C@H](CCCNC(=N)N)NC(=O)[C@H](Cc4ccc(O)cc4)NC(=O)[C@H](CCCCN)NC(=O)[C@H](CCSC)NC(=O)[C@H](CO)NC(=O)[C@H](Cc4c[nH]cn4)NC(=O)[C@H](CCCCN)NC3=O)C(=O)N[C@@H](CCCNC(=N)N)C(=O)N[C@@H](CCCCN)C(=O)N[C@@H]([C@@H](C)O)C(=O)N2)NC(=O)[C@H](CCCNC(=N)N)NC(=O)[C@H](CO)NC(=O)[C@H](CCCCN)NC(=O)[C@@H]2CCCN2C(=O)[C@H]([C@@H](C)CC)NC(=O)[C@H]([C@@H](C)O)NC(=O)[C@H](CC(=O)O)NC1=O` [[Lys25]ShK], the IC50 in test [1] was determined as 0.226 nM; on hKv1.3, 0.101 nM; in test [2], 0.366 nM.

Consider `CC[C@H](C)[C@@H]1NC(=O)[C@@H](NC(=O)[C@H](CO)NC(=O)[C@@H](N)CCCNC(=N)N)CSSC[C@@H](C(=O)O)NC(=O)[C@H]([C@@H](C)O)NC(=O)CNC(=O)[C@@H]2CSSC[C@@H]3NC(=O)[C@H](CCC(N)=O)NC(=O)[C@H](Cc4ccccc4)NC(=O)[C@H](C)NC(=O)[C@H]([C@@H](C)O)NC(=O)[C@H](CSSC[C@H](NC(=O)[C@H](Cc4ccccc4)NC(=O)[C@H](CCCCN)NC(=O)[C@H](CC(C)C)NC(=O)[C@H](CCCNC(=N)N)NC(=O)[C@H](Cc4ccc(O)cc4)NC(=O)[C@H](CCCCN)NC(=O)[C@H](CCSC)NC(=O)[C@H](CO)NC(=O)[C@H](Cc4c[nH]cn4)NC(=O)[C@H](CCCCN)NC3=O)C(=O)N[C@@H](CCCNC(=N)N)C(=O)N[C@@H](CCCCN)C(=O)N[C@@H]([C@@H](C)O)C(=O)N2)NC(=O)[C@H](CCCNC(=N)N)NC(=O)[C@H](CO)NC(=O)[C@H](CCCCN)NC(=O)[C@@H]2CCCN2C(=O)[C@H]([C@@H](C)CC)NC(=O)[C@H]([C@@H](C)O)NC(=O)[C@H](CC(=O)O)NC1=O` [[Lys26]ShK], for which the figures for the IC50 (in test [1]; at hKv1.3; in test [2]) were 0.273 nM, 0.115 nM and 0.495 nM, respectively.
